# Source: PubChem BioAssay (NCI)
#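 1) Cells in 96-well plates. 2) Compound, 48 h, 5 concentrations. 3) Linear interpolation between surrounding doses. 4) Unreached endpoint = highest concentration. TGI marks complete inhibition of growth.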
# Columns and labels:
# Assay in all cases: NCI anticancer screen, dose series, 48 h
# [1] = tested on: CCRF-CEM leukemia
# [2] = tested on: HL-60(TB) leukemia
# [3] = tested on: SNB-75 CNS
# [4] = tested on: ACHN renal
# [5] = tested on: OVCAR-8 ovarian
# [6] = tested on: U251 CNS
# [7] = tested on: 786-0 renal
# [8] = tested on: HT29 colon
# [9] = tested on: SK-MEL-5 melanoma
# [10] = tested on: OVCAR-5 ovarian
# [11] = tested on: DU-145 prostate
# [12] = tested on: LOX IMVI melanoma
# [13] = tested on: COLO 205 colon
# [14] = tested on: A549 NSCLC
# [15] = tested on: NCI-H522 lung
# [16] = tested on: T-47D breast
# [17] = tested on: MDA-MB-231 breast
# [18] = tested on: HOP-92 NSCLC
# [19] = tested on: HCT-15 colon
# [20] = tested on: HCT-116 colon
# [21] = tested on: SK-OV-3 ovarian
# [22] = tested on: NCI-H226 lung
# [23] = tested on: CAKI-1 renal
# [24] = tested on: SF-539 CNS
# [25] = tested on: HOP-62 NSCLC
# [26] = tested on: MOLT-4 leukemia
# [27] = tested on: RXF 393 renal
# [28] = tested on: SR leukemia
# [29] = tested on: M14 melanoma
# [30] = tested on: EKVX NSCLC
# [31] = tested on: SN12C renal
# [32] = tested on: SF-295 CNS
# [33] = tested on: MDA-MB-435
# [34] = tested on: PC-3 prostate
# [35] = tested on: SW-620 colon
# [36] = tested on: UACC-62 melanoma
# [37] = tested on: MCF7 breast
# [38] = tested on: SNB-19 CNS
# [39] = tested on: A498 renal
# [40] = tested on: MALME-3M melanoma
# [41] = tested on: SK-MEL-28 melanoma
# [42] = tested on: K-562 leukemia
# [43] = tested on: NCI-H460 lung
# [44] = tested on: UACC-257 melanoma
# [45] = tested on: NCI/ADR-RES ovarian
# [46] = tested on: HCC-2998 colon
# [47] = tested on: IGROV1 ovarian
# [48] = tested on: UO-31 renal
# [49] = tested on: OVCAR-3 ovarian
# [50] = tested on: KM12 colon
# [51] = tested on: BT-549 breast
# [52] = tested on: OVCAR-4 ovarian
# [53] = tested on: NCI-H23 lung
# [54] = tested on: MDA-N
# [55] = tested on: SF-268 CNS
# [56] = tested on: RPMI-8226 leukemia
# [57] = tested on: HS 578T breast
# [58] = tested on: TK-10 renal
# [59] = tested on: SK-MEL-2 melanoma
compound,measurement,setting,value
COc1ccc(OC)c(/C=C/c2ccnc3ccccc23)c1,TGI,[1],5.91 µM
same,TGI,[2],0.977 µM
same,TGI,[3],0.977 µM
same,TGI,[4],18.8 µM
same,TGI,[5],1.88 µM
same,TGI,[6],5.66 µM
same,TGI,[7],15.4 µM
same,TGI,[8],2.35 µM
same,TGI,[9],12.9 µM
same,TGI,[10],16 µM
same,TGI,[11],13.1 µM
same,TGI,[12],14.4 µM
same,TGI,[13],0.863 µM
same,TGI,[14],14.7 µM
same,TGI,[15],1.79 µM
same,TGI,[16],29.5 µM
same,TGI,[17],9.44 µM
same,TGI,[18],18.1 µM
same,TGI,[19],17.3 µM
same,TGI,[20],8.09 µM
same,TGI,[21],5.1 µM
same,TGI,[22],4.74 µM
same,TGI,[23],18.1 µM
same,TGI,[24],0.671 µM
same,TGI,[25],18 µM
same,TGI,[26],16.2 µM
same,TGI,[27],2.72 µM
same,TGI,[28],8.07 µM
same,TGI,[29],17.8 µM
same,TGI,[30],10.7 µM
same,TGI,[31],17.6 µM
same,TGI,[32],4.89 µM
same,TGI,[33],0.331 µM
same,TGI,[34],6.76 µM
same,TGI,[35],16.2 µM
same,TGI,[36],7.59 µM
same,TGI,[37],17.4 µM
same,TGI,[38],13.2 µM
same,TGI,[39],3.8 µM
same,TGI,[40],21.5 µM
same,TGI,[41],20.5 µM
same,TGI,[42],2.06 µM
same,TGI,[43],12.3 µM
same,TGI,[44],18.8 µM
same,TGI,[45],1.56 µM
same,TGI,[46],12.9 µM
same,TGI,[47],17.4 µM
same,TGI,[48],6.99 µM
same,TGI,[49],1.76 µM
same,TGI,[50],11.5 µM
same,TGI,[51],14.4 µM
same,TGI,[52],19.6 µM
same,TGI,[53],5.72 µM
same,TGI,[54],0.286 µM
same,TGI,[55],18.2 µM
same,TGI,[56],26.3 µM
same,TGI,[57],5.72 µM
same,TGI,[58],16 µM
CC(=O)Nc1cc2nc3n(c2cc1C)CCC3OC(C)=O (centres undefined),TGI,[1],> 100 µM
same,TGI,[2],> 100 µM
same,TGI,[3],> 100 µM
same,TGI,[4],> 100 µM
same,TGI,[5],> 100 µM
same,TGI,[6],> 100 µM
same,TGI,[7],> 100 µM
same,TGI,[8],> 100 µM
same,TGI,[10],> 100 µM
same,TGI,[11],> 100 µM
same,TGI,[12],> 100 µM
same,TGI,[13],> 100 µM
same,TGI,[14],> 100 µM
same,TGI,[15],> 100 µM
same,TGI,[16],> 100 µM
same,TGI,[17],> 100 µM
same,TGI,[18],> 100 µM
same,TGI,[19],> 100 µM
same,TGI,[20],> 100 µM
same,TGI,[21],> 100 µM
same,TGI,[22],> 100 µM
same,TGI,[23],> 100 µM
same,TGI,[24],> 100 µM
same,TGI,[26],> 100 µM
same,TGI,[27],> 100 µM
same,TGI,[28],> 100 µM
same,TGI,[29],> 100 µM
same,TGI,[30],> 100 µM
same,TGI,[31],> 100 µM
same,TGI,[32],> 100 µM
same,TGI,[33],> 100 µM
same,TGI,[34],> 100 µM
same,TGI,[35],> 100 µM
same,TGI,[36],> 100 µM
same,TGI,[59],> 100 µM
same,TGI,[37],> 100 µM
same,TGI,[38],> 100 µM
same,TGI,[39],> 100 µM
same,TGI,[40],> 100 µM
same,TGI,[41],> 100 µM
same,TGI,[42],> 100 µM
same,TGI,[43],> 100 µM
same,TGI,[44],> 100 µM
same,TGI,[45],> 100 µM
same,TGI,[46],> 100 µM
same,TGI,[47],> 100 µM
same,TGI,[48],> 100 µM
same,TGI,[49],> 100 µM
same,TGI,[50],> 100 µM
same,TGI,[51],> 100 µM
same,TGI,[52],> 100 µM
same,TGI,[53],> 100 µM
same,TGI,[54],> 100 µM
same,TGI,[55],> 100 µM
same,TGI,[56],> 100 µM
same,TGI,[57],> 100 µM
